Key:
CDK4/CyclinD1 = biological target: T1, CDK4/CyclinD1 (Homo sapiens, UniProt P11802); assay: CDK4/CyclinD1 kinase inhibitory activity (Caliper mobility shift); format: biochemical; settings: enzyme 20 nM, ATP 672 uM, 28° C. 30 min; read-out: CDK4/Cyclin D1 IC50
T1 construct: purchased ProQinase 0142-0143-1
Procedure: CDK4/CyclinD1 kinase inhibitory activity (IC50): 5 μl of various dilutions of test compound in 1× kinase buffer (20 mM HEPES, pH 7.5, 10 mM MgCl2, 2 mM DTT and 0.01% Triton X-100) was mixed with 10 μL of either CDK4/Cyclin D1 (ProQinase, 0142-0143-1 #, final concentration 20 nM in 1× Kinase buffer) or in 384 plates and incubated at room temperature for 10 min. To initiate each reaction, 10 μL of peptide solution containing fluorescently-labeled-peptide 8(5-FAM-IPTSPITTTYFFFKKK-COOH, GL, 112396 #, final concentration 3000 nM) and ATP (final concentration 672 uM for CDK4/CyclinD1) in 1×Kinase buffer was added to each of the wells containing test compound and CDK4/CyclinD1 mixture. The reaction is then allowed to proceed at 28° C. for 30 min and terminated by the addition of 25 μL stop buffer (100 mM HEPES pH 7.5, 50 mM EDTA, 0.2% Coating Reagent #3 (Perkin Elmer, 760050 #) and 0.015% Brij-35).
(§1) Following the kinase reaction, Caliper EZ reader II (Downstream voltages: −500V, Upstream voltages: −2250V, Base pressure −0.5 PSI, Screen pressure −1.2 PSI) was used to separate the phosphorylated (product) and the unphosphorylated (substrate) fluorescently-labeled peptide 8 based on their different mobility. Both substrate and product were measured and the ratio of these values were used to generate % conversion by Caliper EZ reader II. These conversion values were then transformed into % inhibition of kinase activity using the formula: % Inhibition=[(MA−X)/(MA−MI)]×100% where MA=conversion value of DMSO only controls, MI=conversion value of no enzyme controls and X=conversion value at any given compound dose. IC50 values were then calculated by plotting dose-response curves and then using the XLfit application in Excel software.

CDK6/CyclinD3 = biological target: T2, CDK6/CyclinD3 (Homo sapiens, UniProt Q00534); assay: CDK6/CyclinD3 kinase inhibitory activity (Caliper mobility shift); format: biochemical; settings: enzyme 15 nM, ATP 800 μM, 28° C. 30 min; read-out: CDK6/Cyclin D3 IC50
T2 construct: purchased Carna 04-107
Procedure: CDK6/CyclinD3 kinase inhibitory activity (IC50): 5 μl of various dilutions of test compound in 1× kinase buffer (50 mM HEPES pH 7.5, 10 mM MgCl2, 2 mM DTT and 0.01% Brij-35) was mixed with 10 μL of CDK6/CyclinD3 (Carna, 04-107 #, final concentration 15 nM in 1× Kinase buffer) in 384 plates and incubated at room temperature for 10 min. To initiate each reaction, 10 μL of peptide solution containing fluorescently-labeled -peptide 8(5-FAM-IPTSPITTTYFFFKKK-COOH, GL, 112396 #, final concentration 3000 nM) and ATP (final concentration 800 μM for CDK6/CyclinD3 in 1× Kinase buffer was added to each of the wells containing test compound and CDK6/CyclinD3. The reaction is then allowed to proceed at 28° C. for 30 min and terminated by the addition of 25 μL stop buffer (100 mM HEPES pH 7.5, 50 mM EDTA, 0.2% Coating Reagent #3 (Perkin Elmer, 760050 #) and 0.015% Brij-35).
as §1

T1 sequence (P11802 whole entry): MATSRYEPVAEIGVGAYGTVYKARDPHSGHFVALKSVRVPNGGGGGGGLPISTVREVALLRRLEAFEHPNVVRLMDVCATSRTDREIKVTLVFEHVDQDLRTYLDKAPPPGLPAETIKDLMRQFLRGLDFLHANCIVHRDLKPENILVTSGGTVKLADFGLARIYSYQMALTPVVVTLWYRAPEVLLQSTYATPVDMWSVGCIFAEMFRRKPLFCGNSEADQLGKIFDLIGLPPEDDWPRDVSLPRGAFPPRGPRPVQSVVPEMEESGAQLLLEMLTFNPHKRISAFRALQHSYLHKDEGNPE
T1 sequence (P24385 whole entry partner): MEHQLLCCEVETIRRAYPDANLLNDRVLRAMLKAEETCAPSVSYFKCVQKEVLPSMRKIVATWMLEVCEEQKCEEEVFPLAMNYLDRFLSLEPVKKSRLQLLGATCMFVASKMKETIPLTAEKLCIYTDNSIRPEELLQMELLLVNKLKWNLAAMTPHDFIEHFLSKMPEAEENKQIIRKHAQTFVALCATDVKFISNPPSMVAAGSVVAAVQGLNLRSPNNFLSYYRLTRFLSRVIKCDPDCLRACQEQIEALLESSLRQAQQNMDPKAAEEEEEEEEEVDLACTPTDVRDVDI
T2 sequence (Q00534 whole entry): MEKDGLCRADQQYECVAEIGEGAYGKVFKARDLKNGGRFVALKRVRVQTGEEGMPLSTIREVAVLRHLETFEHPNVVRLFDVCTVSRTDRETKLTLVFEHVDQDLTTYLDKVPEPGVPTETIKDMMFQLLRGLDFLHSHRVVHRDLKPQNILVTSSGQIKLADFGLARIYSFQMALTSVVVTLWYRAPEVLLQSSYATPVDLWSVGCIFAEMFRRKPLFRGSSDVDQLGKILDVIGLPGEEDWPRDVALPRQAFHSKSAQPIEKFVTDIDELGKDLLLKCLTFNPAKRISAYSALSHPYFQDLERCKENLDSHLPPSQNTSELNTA
T2 sequence (P30281 whole entry partner): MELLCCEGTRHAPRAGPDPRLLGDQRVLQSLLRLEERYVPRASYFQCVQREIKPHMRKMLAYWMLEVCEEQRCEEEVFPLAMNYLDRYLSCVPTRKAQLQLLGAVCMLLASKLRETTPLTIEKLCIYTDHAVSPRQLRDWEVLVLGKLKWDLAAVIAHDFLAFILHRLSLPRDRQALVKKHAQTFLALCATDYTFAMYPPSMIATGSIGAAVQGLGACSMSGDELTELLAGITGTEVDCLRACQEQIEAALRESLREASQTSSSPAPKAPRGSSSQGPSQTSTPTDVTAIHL

Row | IC50 (CDK4/CyclinD1) | IC50 (CDK6/CyclinD3) | Compound
1 | < 10 nM | 100 to 1000 nM | [2H]c1nc(N[C@@H]2CCOC[C@H]2O)nc(-c2cc(F)c3nc([2H])c4c(c3c2)CNC2(CC2)C4)c1F [Example 71]
2 | < 10 nM | 100 to 1000 nM | CC(NC1CC1)c1cnc2c(F)cc(-c3nc(N[C@@H]4CCOC[C@H]4O)ncc3Cl)cc2c1Cl (single isomer, unassigned) [Example 90b]
3 | 100 to 1000 nM | ≥ 1000 nM | O[C@@H]1COCC[C@H]1Nc1ncc(Cl)c(-c2cc(F)c3ncc4c(c3c2)C2CCC(C4)N2)n1 (single isomer, unassigned) [Example 20a]
4 | < 10 nM | 100 to 1000 nM | COc1c(C(C)(C)O)cnc2c(F)cc(-c3nc(N[C@@H]4CCOC[C@H]4O)ncc3Cl)cc12 [Example 43]
5 | < 10 nM | 100 to 1000 nM | CNC(C)c1cc2cc(-c3nc(N[C@@H]4CCOC[C@H]4O)ncc3F)cc(F)c2nc1C (single isomer, unassigned) [Example 54a]
6 | 10 to 100 nM | 100 to 1000 nM | CNC(C)c1cnc2c(F)cc(-c3nc(N[C@@H]4CCOC[C@H]4O)ncc3Cl)cc2c1 (single isomer, unassigned) [Example 32b]
7 | < 10 nM | 100 to 1000 nM | CC1(C)NCc2c(cnc3c(F)cc(-c4nc(N[C@@H]5CCOC[C@H]5O)ncc4F)cc23)C1O (single isomer, unassigned) [Example 106a]
8 | 10 to 100 nM | ≥ 1000 nM | CC1NCCc2cnc3c(F)cc(-c4nc(N[C@@H]5CCOC[C@H]5O)ncc4Cl)cc3c21 (single isomer, unassigned) [Example 31a]
9 | 10 to 100 nM | 100 to 1000 nM | Cc1nc2c(F)cc(-c3ccnc(N[C@@H]4CCOC[C@H]4O)n3)cc2c(C)c1C(C)O (single isomer, unassigned) [Example 82a]
10 | 10 to 100 nM | 100 to 1000 nM | CC(C)(O)c1cnc2c(F)cc(-c3nc(N[C@@H]4CCOC[C@H]4O)ncc3C#N)cc2c1 [Example 2, 4-(8-fluoro-3-(2-hydroxypropan-2-yl)quinolin-6-yl)-2-(((3S,4R)-3-hydroxytetrahydro-2H-pyran-4-yl)amino)pyrimidine-5-carbonitrile]
11 | < 10 nM | 100 to 1000 nM | [2H]c1nc(N[C@@H]2CCOC[C@H]2O)nc(-c2cc(F)c3nc(C)c4c(c3c2)CNC(C)(C)C4)c1F [Example 105]
12 | < 10 nM | 100 to 1000 nM | CNC(C)c1cc2cc(-c3nc(N[C@@H]4CCOC[C@H]4O)ncc3F)cc(F)c2nc1C (single isomer, unassigned) [Example 54b]
13 | 10 to 100 nM | 100 to 1000 nM | CC(NC1CC1)c1cnc2c(F)cc(-c3nc(N[C@@H]4CCOC[C@H]4O)ncc3Cl)cc2c1Cl (single isomer, unassigned) [Example 90a]
14 | < 10 nM | 100 to 1000 nM | Cc1nc2c(F)cc(-c3cc(N[C@@H]4CCOC[C@H]4O)ncc3F)cc2cc1C(C)(C)O [Example 78]
15 | < 10 nM | 100 to 1000 nM | [2H]c1nc2c(F)cc(-c3nc(N[C@@H]4CCOC[C@H]4O)ncc3Cl)cc2c2c1CC1(CC1)NC2 [Example 72]
16 | 10 to 100 nM | ≥ 1000 nM | Cc1nc2c(F)cc(-c3nc(N[C@@H]4CCOC[C@H]4O)ncc3Cl)cc2cc1C1CCCN1 (single isomer, unassigned) [Example 57b]
17 | < 10 nM | 100 to 1000 nM | [2H]c1nc2c(F)cc(-c3ccnc(N[C@@H]4CCOC[C@H]4O)n3)cc2c2c1CC(C)(C)NC2 [Example 101]
18 | 10 to 100 nM | 100 to 1000 nM | Cc1n[nH]c2cnc3ccc(-c4nc(N[C@@H]5CCOC[C@H]5O)ncc4Cl)cc3c12 [Example 11, (3S,4R)-4-((5-chloro-4-(1-methyl-3H-pyrazolo[3,4-c]quinolin-8-yl)pyrimidin-2-yl)amino)tetrahydro-2H-pyran-3-ol]
19 | < 10 nM | 100 to 1000 nM | O[C@@H]1COCC[C@H]1Nc1ncc(Cl)c(-c2cc(F)c3ncc(C4(O)CCC4)cc3c2)n1 [Example 16, (3S,4R)-4-((5-chloro-4-(8-fluoro-3-(1-hydroxycyclobutyl)quinolin-6-yl)pyrimidin-2-yl)amino)tetrahydro-2H-pyran-3-ol]

Source: patent publication US20260242395A1, “AMINOHETEROARYL KINASE INHIBITORS” (ALLORION THERAPEUTICS INC, priority 2022, published 2026)
